# In patent US20230116972A1, “CD38 MODULATORS AND METHODS OF USE THEREOF” (Cytokinetics, Inc., priority 2021, published 2023):
# Like-named read-outs stand apart in the source and are kept apart here.
# Key:
# [1] = target: T1, human CD38 (Homo sapiens, UniProt P28907); assay: human recombinant CD38 enzyme assay (hydrolysis of NAD+); type: biochemical; conditions: human recombinant CD38, 0.4 nM enzyme, 62.5 μM NAD+; read-out: hCD38 BioChem IC50
# T1 sequence (P28907 1-300): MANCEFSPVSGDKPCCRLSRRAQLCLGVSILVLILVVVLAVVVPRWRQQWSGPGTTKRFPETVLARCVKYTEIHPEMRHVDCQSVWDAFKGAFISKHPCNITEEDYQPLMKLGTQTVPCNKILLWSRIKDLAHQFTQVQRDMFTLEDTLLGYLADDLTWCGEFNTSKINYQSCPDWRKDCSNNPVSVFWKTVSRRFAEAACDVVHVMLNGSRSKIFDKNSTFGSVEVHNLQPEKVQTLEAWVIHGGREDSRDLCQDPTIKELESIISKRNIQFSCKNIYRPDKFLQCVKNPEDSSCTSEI
# How it was run: (§1)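 Residual NAD+ after 60 min of cell-free hydrolysis by recombinant mouse or human CD38 at ambient temperature, measured over a dose range. Detection used ADH conversion to NADH, then diaphorase-coupled resazurin-to-resorufin fluorescence (Ex/Em 540/590 nm).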
# [2] = target: T2, mouse CD38 (Mus musculus, UniProt P56528); assay: mouse recombinant CD38 enzyme assay (hydrolysis of NAD+); type: biochemical; conditions: read-out: mCD38 BioChem IC50
# T2 sequence (P56528 1-304): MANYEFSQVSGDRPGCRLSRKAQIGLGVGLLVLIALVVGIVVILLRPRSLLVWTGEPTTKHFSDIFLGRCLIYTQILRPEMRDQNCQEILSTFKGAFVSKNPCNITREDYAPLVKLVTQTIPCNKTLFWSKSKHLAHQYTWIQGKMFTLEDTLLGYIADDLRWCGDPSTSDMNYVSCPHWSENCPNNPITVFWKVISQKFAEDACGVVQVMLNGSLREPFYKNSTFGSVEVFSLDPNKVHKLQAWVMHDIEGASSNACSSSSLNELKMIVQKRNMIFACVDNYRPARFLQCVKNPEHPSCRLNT
# How it was run: as §1
# [3] = target: T3, CYP1A2 (Homo sapiens, UniProt P05177); assay: time dependent inhibition of CYP450 in pooled human microsomes; type: in vitro ADME
# T3 construct: from tissue; host or cells: human liver microsomes (pooled in the time-dependent assay)
# T3 sequence (P05177 1-516): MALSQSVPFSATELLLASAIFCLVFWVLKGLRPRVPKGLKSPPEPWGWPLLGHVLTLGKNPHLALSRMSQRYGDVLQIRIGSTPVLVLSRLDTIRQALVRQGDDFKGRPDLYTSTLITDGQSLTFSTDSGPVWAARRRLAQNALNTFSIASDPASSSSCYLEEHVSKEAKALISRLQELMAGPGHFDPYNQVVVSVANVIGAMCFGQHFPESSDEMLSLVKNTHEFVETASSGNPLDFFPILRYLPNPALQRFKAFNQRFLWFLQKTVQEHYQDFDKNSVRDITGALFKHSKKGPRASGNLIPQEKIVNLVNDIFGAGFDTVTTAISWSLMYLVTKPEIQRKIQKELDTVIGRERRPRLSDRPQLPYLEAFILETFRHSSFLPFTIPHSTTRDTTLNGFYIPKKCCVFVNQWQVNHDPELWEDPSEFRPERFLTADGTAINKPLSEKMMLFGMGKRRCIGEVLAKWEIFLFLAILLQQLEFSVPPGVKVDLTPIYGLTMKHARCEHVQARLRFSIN
# Method: Time dependent inhibition: An assessment of the time-dependent Inhibitory potential of test compounds against the principal human cytochrome P450 isozymes was carried out using standard methods (Grimm et al, “The Conduct of in Vitro Studies to Address Time-Dependent Inhibition of Drug-Metabolizing Enzymes: A Perspective of the Pharmaceutical Research and Manufacturers of America”, Drug Metabolism and Disposition, 37 (7): 1355, 2009). […] Each compound was pre-incubated at 37° C. plus and minus NADPH for 30 min, and with 0 min pre-incubation for assessment of potential time dependent inhibition. LC-MS/MS was used to quantify metabolite formation. […] Note that, in Tables 8 and 9, the “Compound No” corresponds to the compound numbers in Table 1.
# [4] = target: T4, CYP3A4 (Homo sapiens, UniProt P08684); assay: direct inhibition of CYP450 in human liver microsomes (midazolam and testosterone probes); type: in vitro ADME
# T4 construct: from tissue; host or cells: human liver microsomes (pooled in the time-dependent assay)
# Method: (§2) Direct inhibition: […] A Perspective of the Pharmaceutical Research and Manufacturers of America”, Drug Metabolism and Disposition, 37 (7): 1355, 2009). For 3A4, the % activity was measured using both midazolam and testosterone as probes. Each compound at 3, 10, and 50 μM was incubated with HLM, NADPH and CYP isoenzyme specific probe substrates at 37° C. Inhibition of the probe substrate metabolism was quantified using LC/MS/MS. […] Known chemical inhibitors specific for the individual CYP isoenzymes were evaluated in parallel as positive controls and these compounds produced CYP inhibition consistent with published results (Walsky & Obach RS. “Validated assays for human cytochrome P450 activities”. Drug Metab Dispos. 32(6):647-60, 2004). Note that, in Tables 6 and 7, the “Compound No” corresponds to the compound numbers in Table 1.
# [5] = target: T5, CYP2D6 (Homo sapiens, UniProt P10635); assay: direct inhibition of CYP450 in human liver microsomes; type: in vitro ADME; conditions: for activity at 3 µM / activity at 10 µM / activity at 50 µM: % of non-inhibited control, read-out: CYP2D6 T0 % activity; for IC50: estimated from 3, 10, 50 uM, read-out: CYP2D6 T0 estimated IC50
# T5 construct: from tissue; host or cells: human liver microsomes (pooled in the time-dependent assay)
# Method: as §2
# [6] = midazolam probe, read-out: CYP3A4-M T0 % activity
# [7] = testosterone probe, read-out: CYP3A4-T T0 % activity
# [8] = midazolam probe, read-out: CYP3A4-M T0 estimated IC50
# [9] = testosterone probe, read-out: CYP3A4-T T0 estimated IC50
# T5 sequence (P10635 whole entry): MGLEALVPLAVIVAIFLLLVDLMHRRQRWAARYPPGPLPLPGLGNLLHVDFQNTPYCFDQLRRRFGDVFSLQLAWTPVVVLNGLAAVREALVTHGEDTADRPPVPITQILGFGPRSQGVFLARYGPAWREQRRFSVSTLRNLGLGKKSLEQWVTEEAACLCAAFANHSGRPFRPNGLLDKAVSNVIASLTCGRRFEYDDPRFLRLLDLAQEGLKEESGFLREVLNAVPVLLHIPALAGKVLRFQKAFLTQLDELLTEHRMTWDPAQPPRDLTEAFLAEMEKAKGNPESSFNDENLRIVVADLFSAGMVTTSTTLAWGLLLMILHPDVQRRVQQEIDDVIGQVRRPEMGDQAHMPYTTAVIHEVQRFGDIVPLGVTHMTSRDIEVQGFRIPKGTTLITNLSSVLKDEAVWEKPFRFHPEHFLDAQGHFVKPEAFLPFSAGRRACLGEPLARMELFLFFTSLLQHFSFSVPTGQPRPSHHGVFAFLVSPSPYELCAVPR
# T4 sequence (P08684 whole entry): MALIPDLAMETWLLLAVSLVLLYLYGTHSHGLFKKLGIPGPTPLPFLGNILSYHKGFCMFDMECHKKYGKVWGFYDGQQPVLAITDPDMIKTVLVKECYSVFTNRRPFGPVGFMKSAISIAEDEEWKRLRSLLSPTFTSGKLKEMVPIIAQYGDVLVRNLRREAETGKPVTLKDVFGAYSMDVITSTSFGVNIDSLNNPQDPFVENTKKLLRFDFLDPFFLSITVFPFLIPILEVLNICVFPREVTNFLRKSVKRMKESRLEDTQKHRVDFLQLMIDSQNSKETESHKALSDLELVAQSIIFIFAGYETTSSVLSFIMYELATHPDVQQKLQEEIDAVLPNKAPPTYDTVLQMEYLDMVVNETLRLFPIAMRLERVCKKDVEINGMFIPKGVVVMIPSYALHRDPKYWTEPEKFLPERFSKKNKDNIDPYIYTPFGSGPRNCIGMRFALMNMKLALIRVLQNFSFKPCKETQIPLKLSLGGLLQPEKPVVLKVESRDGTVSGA
IC50 [1],IC50 [2],"IC50 ([3]; 0 min pre-incubation, pooled human microsomes, read-out: IC50 CYP1A2 (reversible inhibition))",CYP1A2 IC50 fold shift ([3]; between 30 min pre-incubation plus NADPH and 0 min),"IC50 ([3]; pre-incubation 30 min (NADPH), read-out: CYP1A2 IC50)","IC50 ([3]; pre-incubation 30 min (NO NADPH), read-out: CYP1A2 IC50)","activity at 3 µM [4, 6]","activity at 3 µM [4, 7]","activity at 10 µM [4, 6]","activity at 10 µM [4, 7]","activity at 50 µM [4, 6]","activity at 50 µM [4, 7]","IC50 [4, 8]","IC50 [4, 9]",activity at 3 µM [5],activity at 10 µM [5],activity at 50 µM [5],IC50 [5],SMILES
68.4 nM,22.5 nM,,,,,88%,96%,97%,99%,82%,95%,> 50000 nM,> 50000 nM,89%,87%,56%,> 50000 nM,"Cn1cncc1-c1ccnc(C(=O)N[C@H]2CC[C@H](O)CC2)n1 [Compound 256, N-((1r,4r)-4-hydroxycyclohexyl)-4-(1-methyl-1H-imidazol-5-yl)pyrimidine-2-carboxamide]"
7 nM,1 nM,,,,,147%,100%,148%,97%,96%,72%,> 50000 nM,> 50000 nM,98%,98%,64%,> 50000 nM,"CO[C@H]1CC[C@H](NC(=O)c2cc(C3CCC(F)(F)CC3)nc(-c3cncn3C)n2)CC1 [Compound 289, 6-(4,4-difluorocyclohexyl)-N-((1r,4r)-4-methoxycyclohexyl)-2-(1-methyl-1H-imidazol-5-yl)pyrimidine-4-carboxamide]"

# Continued, molecule first:
SMILES,IC50 [1],IC50 [2],"IC50 ([3]; 0 min pre-incubation, pooled human microsomes, read-out: IC50 CYP1A2 (reversible inhibition))",CYP1A2 IC50 fold shift ([3]; between 30 min pre-incubation plus NADPH and 0 min),"IC50 ([3]; pre-incubation 30 min (NADPH), read-out: CYP1A2 IC50)","IC50 ([3]; pre-incubation 30 min (NO NADPH), read-out: CYP1A2 IC50)","activity at 3 µM [4, 6]","activity at 3 µM [4, 7]","activity at 10 µM [4, 6]","activity at 10 µM [4, 7]","activity at 50 µM [4, 6]","activity at 50 µM [4, 7]","IC50 [4, 8]","IC50 [4, 9]",activity at 3 µM [5],activity at 10 µM [5],activity at 50 µM [5],IC50 [5]
"CO[C@H]1CC[C@H](NC(=O)c2nccc(-c3cncn3C)n2)CC1 [Compound 148, N-((1r,4r)-4-methoxycyclohexyl)-4-(1-methyl-1H-imidazol-5-yl)pyrimidine-2-carboxamide]",70 nM,23 nM,10000 nM,0.8,11800 nM,12000 nM,,,,,,,,,,,,
"CO[C@H]1CC[C@H](NC(=O)c2cc(C3CCOCC3)nc(-c3cncn3C)n2)CC1 [Compound 199, N-((1r,4r)-4-methoxycyclohexyl)-2-(1-methyl-1H-imidazol-5-yl)-6-(tetrahydro-2H-pyran-4-yl)pyrimidine-4-carboxamide]",15.2 nM,3.1 nM,,,,,93%,98%,92%,96%,79%,79%,> 50000 nM,> 50000 nM,,,,
"CC(C)(O)c1ccc(NC(=O)c2nccc(-n3ccnc3)n2)cn1 [Compound 249, N-(6-(2-hydroxypropan-2-yl)pyridin-3-yl)-4-(1H-imidazol-1-yl)pyrimidine-2-carboxamide]",11.9 nM,45.2 nM,,,,,108%,99%,103%,100%,100%,92%,> 50000 nM,> 50000 nM,104%,103%,87%,> 50000 nM
"Cn1cncc1-c1ccnc(C(=O)Nc2ccc(C(C)(C)O)nc2)n1 [Compound 250, N-(6-(2-hydroxypropan-2-yl)pyridin-3-yl)-4-(1-methyl-1H-imidazol-5-yl)pyrimidine-2-carboxamide]",14.1 nM,32 nM,,,,,96%,104%,89%,106%,73%,85%,> 50000 nM,> 50000 nM,103%,86%,47%,< 50000 nM
"CO[C@H]1CC[C@H](NC(=O)c2cc(C3(C)COC3)nc(-c3cncn3C)n2)CC1 [Compound 295, N-((1r,4r)-4-methoxycyclohexyl)-2-(1-methyl-1H-imidazol-5-yl)-6-(3-methyloxetan-3-yl)pyrimidine-4-carboxamide]",18.5 nM,3.6 nM,,,,,92%,103%,93%,106%,101%,86%,> 50000 nM,> 50000 nM,95%,79%,36%,< 50000 nM
